Data published in PMC9950073, “Alleviation of arthritis through prevention of neutrophil extracellular traps by an orally available inhibitor of protein arginine deiminase 4” (Scientific Reports, 2023).

Experiments:
human recombinant PAD3 = molecular target: T1, human recombinant PAD3 (Homo sapiens, UniProt Q9ULW8); experiment: PAD3 selectivity biochemical assay measuring ammonia release; details: 10 semi-log concentrations, highest concentration tested 30 µM
T1 construct: purchased Cayman Chemicals 10786
T1 sequence (Q9ULW8 1-664): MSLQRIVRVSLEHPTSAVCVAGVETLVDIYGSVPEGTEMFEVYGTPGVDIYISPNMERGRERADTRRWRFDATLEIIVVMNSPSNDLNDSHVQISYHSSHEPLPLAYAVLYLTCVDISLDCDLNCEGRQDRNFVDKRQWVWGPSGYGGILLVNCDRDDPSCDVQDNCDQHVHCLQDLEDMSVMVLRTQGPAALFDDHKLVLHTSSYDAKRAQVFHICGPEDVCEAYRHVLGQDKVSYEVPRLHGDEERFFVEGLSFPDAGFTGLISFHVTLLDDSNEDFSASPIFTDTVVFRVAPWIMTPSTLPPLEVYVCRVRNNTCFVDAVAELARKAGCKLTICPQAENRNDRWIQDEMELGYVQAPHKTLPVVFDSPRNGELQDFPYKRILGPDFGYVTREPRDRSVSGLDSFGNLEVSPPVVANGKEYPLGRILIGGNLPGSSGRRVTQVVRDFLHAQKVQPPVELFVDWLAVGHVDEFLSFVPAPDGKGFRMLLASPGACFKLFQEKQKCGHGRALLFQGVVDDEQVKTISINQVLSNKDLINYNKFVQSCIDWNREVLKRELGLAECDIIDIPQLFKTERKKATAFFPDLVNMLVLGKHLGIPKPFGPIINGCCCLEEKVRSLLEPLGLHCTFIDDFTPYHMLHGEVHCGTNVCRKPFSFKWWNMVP

[1] = system: G-CSF-modified collagen-induced arthritis; experiment: G-CSF-modified collagen-induced arthritis model; format: in vivo, C57BL/6 mice
Experimental: C57BL/6 mice aged 8– 12 weeks were immunized with the emulsion of complete Freund's adjuvant (CFA, catalog number: 7023, Chondrex, Redmond, WA) and 100 μg of chicken type II collagen (catalog number: 20012, Chondrex) in a 1:1 mixture (total 100 μl) subcutaneously into the base of the tail on day 0[18]. The booster immunization of CII with incomplete Freund's adjuvant (catalog number: 7002, Chondrex) was performed on day 21. Recombinant human G-CSF (Filgrastim, Neupogen, Amgen, Inc., Thousand Oaks, CA) was injected at 10 μg peritoneally once daily from day 20 to day 23. Vehicle (water) or 50 mg/kg of JBI-589 was orally administered twice daily from day 20 to day 56. The severity of arthritis was evaluated using the following clinical scoring system for each limb: 0, normal; 1, swelling in one finger joint; 2, swelling in more than one finger joint or wrist or ankle joint; 3, swelling in the entire paw; and 4, deformity and or ankylosis. The maximum score was 16 per mouse. […] At the end of the study, all mice were euthanized after giving anesthesia using 2% isoflurane (Patterson Veterinary, catalog number: 07–893-2374). […]
H&E stain of joint tissue was performed following the previously described method.
Inflammation was scored on a scale of 0 (no inflammation) to 3 (severe inflamed joint) depending on the number of inflammatory cells in the synovial cavity (exudate) and synovial tissue (infiltrate)[39]. […]
Expressions of target proteins in synovial tissue on the joint surface of wrists and ankles were determined by immunoblotting. Synovial tissue was homogenized in radioimmunoprecipitation assay (RIPA) buffer (catalog number: 89901, Thermo Fisher Scientific) with protease inhibitor cocktails (catalog number: R0278, Sigma, St. Louis, MO) on ice. Following centrifugation at 20,000 g for 20 min at 4 °C, the protein content of the supernatant was determined by the Bradford protein assay (catalog number: 5000006, Bio-Rad Laboratories), and an equal amount of protein per sample was used. Protein lysate was resolved on gradient gels (Bolt 4–12% Bis–Tris Plus gels, catalog number: NW04122BOX, Life Technologies) and electroblotted on polyvinylidene difluoride (PVDF) membranes (catalog number: IB401001, Invitrogen) using the iBlot system (Thermo Fisher Scientific). After blocking with 5% BSA TBS-T buffer (0.05% Tween-20 in 1 × TBS) for 1 h at room temperature, the membranes were incubated with primary antibodies against myeloperoxidase (MPO, 1:500, catalog number: A0398, DAKO, Santa Clara, CA) or citrullinated histone H4 (H4Cit, 1: 1,000, catalog number: 07-596, Millipore, Burlington, MA) at 4 °C overnight, and subsequently with goat anti-rabbit IgG (H + L)- HRP (1:10,000, catalog number: 1706515, Bio-Rad) for 2 h at room temperature. Blots were developed with enhanced chemiluminescence substrate (catalog number: 32106, Thermo Fisher Scientific). Equal loading was confirmed by GAPDH (catalog number: G9545-200UL, 1: 10,000, Sigma). The intensity of the bands on blots was quantified using ImageJ software.

[2] = 50 mg/kg orally twice daily day 20 to day 56

inhibitory activity against PAD3 (human recombinant PAD3): did not have any inhibitory activity
SMILES: Cc1c(-c2cc3ccccc3n2Cc2ccc(F)cc2)nc2cc(C(=O)N3CCC[C@@H](N)C3)ccn12 [JBI-589, (R)-(3-aminopiperidin-1-yl)(2-(1-(4-fluorobenzyl)-1H-indol-2-yl)-3-methylimidazo[1,2-a]pyridin-7-yl)methanone]
effect on arthritis incidence [1, 2]: significant effect
effect on arthritis severity [1, 2]: significant effect
lesions positive for H3Cit and Ly6G and DNA within the joint space and on the bone surface (immunofluorescence) ([1]; ankle joints day 56, present in vehicle-treated mice): not in JBI-589-treated mice
eroded surface of bones (micro-CT) ([1]; ankle joints, vs control mice): fewer areas of eroded surface
plasma levels of H3Cit ([1]; day 22, vs vehicle): lower
serum IL-6 ([1]; day 56, vs vehicle): reduced
serum anti-Collagen Type II (CII) IgG2c antibody level ([1]; day 56, vs vehicle): comparative
serum anti-Collagen Type II (CII) IgG antibody level ([1]; day 56, vs vehicle): comparative
H4Cit in synovial tissue (western blot) ([1]; vs vehicle): less
Myeloperoxidase (MPO) in synovial tissue (western blot) ([1]; vs vehicle): less
inflammation (exudate and infiltrate), H&E staining of ankle joint ([1]; vs vehicle): alleviated severity of arthritis
serum anti-H3Cit antibody ([1]; vs vehicle): less
